Results reported in article PMC4383003, “Transfer hydrogenation catalysis in cells as a new approach to anticancer drug design” (Nature Communications, 2015).
Several values for one entry are separate records, joined by “and”; a condition that tells them apart may be missing. Equal entries are not always repeated.

Tests used:
[1] = pKa* of aqua adducts of the complexes; format: physicochemical; details: pKa value determined in deuterated solvent
Excerpt: Table 1 pKa* values for aqua adducts of catalysts 1–4 (and 8 for comparison) and turnover frequencies for transfer hydrogenation of NAD^+ using formate. | column: pKa*

[2] = Transfer hydrogenation of NAD+ to 1,4-NADH with formate, followed by 1H NMR; details: NAD+ 2 mol equiv, formate 25 mol equiv, 310 K, pH* 7.2; for TOF D2O/MeOH-d4: 23% MeOH-d4/77% D2O
Description: Complexes 1–7 were dissolved in MeOH-d4/D2O (5:1 v/v, 1.4 mM, 4 ml). Solutions of sodium formate (35 mM, 4 ml) and NAD^+ in D2O (2.8 mM, 2 ml) were also prepared and incubated at 310 K. In a typical experiment, 200-μl aliquots of each solution were added to a 5-mm NMR tube and the pH* adjusted to 7.2±0.1 (total volume 0.635 ml, final concentrations: Ru complex 0.44 mM; NAD^+ 0.88 mM; formate 11.02 mM; molar ratio 1:2:25). ^1H NMR spectra were recorded at 310 K every 162 s until the completion of the reaction.
Molar ratios of NAD^+ and NADH were determined by integrating the peaks at 9.33 and 6.96 p.p.m. (NAD^+ and 1,4-NADH, respectively). The turnover number for the reaction was calculated as follows: […]
where In is the integral of the signal at n p.p.m. and [NAD^+]0 is the concentration of NAD^+ at the start of the reaction.

[3] = system: A2780 human ovarian cancer cells; test: In vitro growth inhibition assay (SRB), A2780; format: cell-based; details: A2780, Supplementary Table 3
Description: A2780 human ovarian carcinoma and MRC5 human fetal lung fibroblasts were obtained from the European Collection of Cell Cultures. Both cell lines were grown in Roswell Park Memorial Institute medium (RPMI-1640) supplemented with 10% of fetal calf serum, 1% of 2 mM glutamine and 1% penicillin/streptomycin. All cells were grown as adherent monolayers at 310 K in a 5% CO2-humidified atmosphere and passaged at ca. 70–80% confluency.
The antiproliferative activity of complexes 1–8 was determined in A2780 ovarian cancer cells and MRC5 fibroblasts. Briefly, 96-well plates were used to seed 5,000 cells per well. The plates were left to pre-incubate with drug-free medium at 310 K for 48 h before adding different concentrations of the compounds to be tested. A drug exposure period of 24 h was allowed. After this, supernatants were removed by suction and each well was washed with PBS. A further 72 h were allowed for the cells to recover in drug-free medium at 310 K. The sulforhodamine B (SRB) assay was used to determine cell viability. IC50 values, as the concentration that causes 50% cell death, were determined as duplicates of triplicates in two independent sets of experiments and their s.d. were calculated.

[4] = system: A2780 ovarian cancer cells; test: Cell viability on co-administration of Ru complexes (1/3 x IC50) with formate or acetate; format: cell-based, human; details: for Cell viability: A2780, complex 1/3 x IC50, 24 h
Description: Cell viability assays were carried out with complexes 1–8 in A2780 ovarian cancer cells. These experiments were carried out as described above with the following modifications: a fixed concentration of each Ru complex equal to 1/3 × IC50 was used in co-administration with three different concentrations of sodium formate or sodium acetate (0.5, 1.0 and 2.0 mM). To prepare the stock solution of the drug, the complex was dissolved in 5% dimethylsulfoxide and diluted in a 1:1 mixture of 0.9% saline:cell culture medium. This stock was further diluted using RPMI-1640 until working concentrations were achieved. Separately, stock solutions of sodium formate or sodium acetate were prepared in saline. The complex and formate were added to each well independently, but within 5 min of each other.
Supplementary Table 7: Percent cell viability of A2780 ovarian cancer cells exposed to equipotent concentrations of ruthenium complexes 1-3 and 5-8 (1/3 x […]
The experiments included 48 h of pre-incubation and 72 h of drug recovery, both in drug-free medium at 310 K in a 5% CO2 humidified atmosphere. All the experiments were performed as duplicates of triplicates in independent experiments and the error bars were calculated as the standard deviation from the mean.
Supplementary Table 11: Cell viability (%) of A2780 ovarian cancer cells exposed […]
administered with different concentrations of sodium acetate (0, 0.5, 1 and 2 mM).
The experiments involved 48 h of pre-incubation and 72 h of drug recovery, both in […]
Cell viability percentages (%)
Complex Acetate concentration (mM)

[5] = system: A2780 ovarian cancer cells; test: Ruthenium accumulation in cancer cells (ICP-MS); format: cell-based, human; details: for Cell Ru: A2780, 1/3 x IC50, 24 h drug exposure, no recovery time; for Cell accum.: A2780, 24 h, 1/3 x IC50
Description: Briefly, 1.5 × 10^6 cells per well were seeded on a six-well plate. […] After this time, cells were washed, treated with trypsin-EDTA, counted and cell pellets were collected. Each pellet was digested overnight in concentrated nitric acid (73%) at 353 K; the resulting solutions were diluted using double-distilled water to give a final concentration of 5% HNO3 and the amount of Ru taken up by the cells was determined by ICP–MS. […]
Supplementary Table 3: Antiproliferative activity of complexes 1-8 in A2780 ovarian cancer cells and their cellular accumulation (expressed as ng Ru per million cells).
The latter experiments were carried out using equipotent concentrations of the […]
experiments were performed as duplicates of triplicates in independent experiments and the error bars were calculated as the standard deviation from the mean. […]

[6] = system: 9-ethylguanine; test: Binding to model nucleobase 9-ethylguanine by 1H NMR; details: D2O, pH* 7.2 ± 0.1, 310 K
Description: Supplementary Table 4: Binding constants for formation of 9-EtG adducts of complexes 1-4 determined by 1H NMR. The experiments were performed in D2O, pH* 7.2 ± 0.1 and 310 K. Equilibrium was reached by the time the first 1H NMR spectrum was recorded (< 10 min). […]
DNA is believed to be the main target for [(bip)Ru(en)Cl]+ (8). Due to the structural similarity of the complexes 1-5 with complex 8, their binding to DNA was […]
Interaction with nucleobases
Initially, model nucleobases, 9-ethylguanine and 9-methyladenine were reacted with complexes 1-4 in D2O, 310 K and pH* 7.2 ± 0.1. The binding of the complexes to 9-EtG or 9-MeA was monitored by 1H-NMR spectroscopy. Peaks for the 9-EtG adducts were observed by the time the first spectrum was recorded (< 5 min after mixing), […]
equilibrium was reached rapidly. The binding constants for formation of 9-EtG adducts determined by NMR were between 60 and 106 mM-1 (Supplementary Table 4). These values are in the same range as that from the ethylenediamine complex [(bip)Ru(en)Cl]+ (K9-EtG= 60.3 mM-1),2 which also binds strongly to DNA.3, 4 The high resolution mass spectrum confirmed the formation of [(η6-arene)Ru(XEn)(9-EtG)]+ (Supplementary Table 5). The interaction of complexes 1-4 with 9-MeA was also investigated, but no reaction was detected by 1H-NMR.
It is well established that N7 of guanine is the preferred nucleotide binding site for many transition metals ions. 2-8 Furthermore, strong and selective binding to N7 of 9-EtG, has been observed for [(η6-arene)Ru(en)Cl]+.3, 4 A pH* titration of […]

[7] = pH* titration of the 9-EtG adduct (1H NMR); format: physicochemical; details: protonation/deprotonation of N1 of coordinated 9-EtG, H8 chemical shift versus pH*
Excerpt: [(p-cym)Ru(TsEn)(9-EtG)]+ was used to confirm that the complex binds to N7. A plot
of the chemical shift of H8 from bound 9-EtG (Supplementary Figure 3), versus pH*
from coordinated 9-EtG and therefore we conclude that the binding of complex 2 to […]

Structure (SMILES)	pKa* [1]	TOF D2O/MeOH-d4 [2] [h⁻¹]	TOF D2O [2] [h⁻¹]	IC50 [3] [µM]	Cell viability ([4]; formate 0.5 mM) [%]	Cell viability ([4]; formate 1 mM) [%]	Cell viability ([4]; formate 2 mM)	decrease in cell survival ([4]; A2780, formate increased from 0 to 2 mM)	Cell Ru [5] [ng x 106 cells]	Cell accum. [5] [ng Ru/10^6 cells]	Binding constant for formation of 9-EtG adducts [6] [mM⁻¹]	Cell viability ([4]; formate 0 mM) [%]	pKa* [7]
CS(=O)(=O)[N-]CCN.Cc1ccc(C(C)C)cc1.[Cl-].[Ru+2] [Complex 1, [(p-cym)Ru(MsEn)Cl]]	9.86±0.01	1.25 ± 0.03	1.11 ± 0.02	11.9 ± 0.8	61± 1	40.0 ± 0.4	1.5 ± 0.1% and ~1%	ca. 50 fold	0.16 ± 0.02	0.16	105.4 ± 2.3	–	–
Cc1ccc(C(C)C)cc1.NCC[N-]S(=O)(=O)c1ccc(C(F)(F)F)cc1.[Cl-].[Ru+2] [Complex 3, [(p-cym)Ru(TfEn)Cl]]	9.71±0.01	5.7 ± 0.3	3.06 ± 0.05	14.2 ± 0.8	60± 2	39.4 ± 2.0	19 ± 2%	–	0.31 ± 0.04	0.31	60.5 ± 6.0	71 ± 2	–
CCn1cnc2c(=O)[nH]c(N)nc21.Cc1ccc(C(C)C)cc1.Cc1ccc(S(=O)(=O)[N-]CCN)cc1.[Ru+2] [[(p-cym)Ru(TsEn)(9-EtG)]+]	–	–	–	–	–	–	–	–	–	–	–	–	8.77
